Measurements reported in PMC10445290, “Enantiomeric Fractions Reveal Differences in the Atropselective Disposition of 2,2′,3,5′,6-Pentachlorobiphenyl (PCB 95) in Wildtype, Cyp2abfgs-Null, and CYP2A6-Humanized Mice” (Chemical Research in Toxicology, 2023).
Where two headings read alike, the source gives them in different places.

Key:
[1] = cited from earlier work
[2] = Levels of PCB 95 and its hydroxylated metabolites in adipose, blood, brain and liver 24 h after a single oral dose (GC-MS/MS); type: in vivo, mice; settings: for Levels in blood / Levels in adipose / Levels in liver / concentration at 24 h: 1 mg/kg; for concentration at 24 h: po
Experimental: Adult male and female wild-type (WT) C57BL/6 mice, KO, and KI mice (4 months old) were exposed to racemic PCB 95. Mice were randomly assigned to exposure groups and received a single oral dose of PCB 95 (1.0 mg/kg) in stripped corn oil (10 mL/kg; lot# A0395699; cat# 801-03-7; Fisher Scientific) via gavage (5–7 mice per group). Control animals received corn oil alone (1–3 mice per group) to assess the potential background contamination with PCB 95. Animals were euthanized 24 h after PCB 95 exposure. Blood was collected from the heart and placed in pre-weighed glass vials with 80 μL of ethylenediaminetetraacetic acid solution (EDTA, 7.5%, w/w). The amount of blood in each vial was determined by weight prior to sample extraction. Adipose, brain, and liver tissues were excised from each animal and individually wrapped in aluminum foil. Samples were stored at −80 °C in separate plastic bags and shipped on dry ice to the University of Iowa for analysis.
PCB 95 and its hydroxylated metabolites were extracted from adipose (0.06 ± 0.01 g), brain (0.19 ± 0.03 g) and liver tissues (0.49 ± 0.07 g) by pressurized liquid extraction (PLE) with a Dionex ASE200 system (Dionex, Sunnyvale, CA, USA).[45] Tissues were homogenized with 2 g of pre-cleaned diatomaceous earth (Thermo Fisher Scientific, Pittsburgh, PA, USA) and placed in extraction cells loaded with 10 g of pre-extracted Florisil (60–100 mesh, Fisher Scientific, Pittsburgh, PA, USA). Tissue samples were then spiked with recovery standards [50 ng of PCB 117 in 50 μL of isooctane and 50 ng of 4′-159 (2′,3,3′,5,5′,6′-hexachlorobiphenyl-4-ol) in 50 μL of methanol]. For ongoing precision recovery (OPR) samples; recovery standard, internal standard, PCB 95, and its metabolites (50 ng each) were spiked to the method blank (DE only) and tissues from control animals. Cells were extracted with hexane–dichloromethane–methanol (48:43:9, v/v/v) at 100 °C and 1500 psi (10 MPa), with preheat equilibration for 6 min, 60% of cell flush volume, and 1 static cycle of 5 min. The extracts were concentrated to approximately 1 mL with a TurboVap II (Biotage, LLC, NC, USA) and transferred to new glass tubes with 1 mL of hexane. The solvent was evaporated to near dryness under a gentle stream of nitrogen, and extracts were redissolved in 1 mL of hexane.
PCB 95 and its hydroxylated metabolites were extracted from whole blood (0.45 ± 0.13 g) using a published liquid–liquid extraction procedure.[29] Briefly, blood samples were thawed, and 3 mL of aqueous 1% KCl solution was added to each sample. Recovery standards (50 ng of PCB 117 in 50 μL of isooctane and 50 ng of 4′-159 in 50 μL of methanol) were spiked to all samples, including OPR samples, before extraction. Subsequently, 1 mL of 6 M HCl, 5 mL of 2-propanol, and 5 mL of 1:1 hexane–MTBE mixture (v/v) were added to the blood samples. The samples were inverted for 5 min and centrifuged at 1690g for 5 min to facilitate the phase separation. Next, the organic phases were transferred to new glass tubes, and the aqueous phases were re-extracted with 3 mL of hexane. Next, three mL of aqueous 1% KCl were added to the combined organic extracts, and samples were inverted and centrifuged as described above. The organic phase was transferred to a new tube, and the aqueous phase was re-extracted with 3 mL of hexane. The combined organic extracts were evaporated to near dryness using a Savant SpeedVac SPD210 (Thermo Scientific, Waltham, MA, US), and each sample was reconstituted with 0.5 mL of hexane.
Five drops of methanol and 0.5 mL of diazomethane (CH2N2; about 0.1 mmol) in diethyl ether were added to the tissue or blood extracts to derivatize the OH-PCBs.[45] Diazomethane rapidly converts the phenolic hydroxyl groups of OH-PCBs to methoxy groups (i.e., −OH → −OCH3). All samples were stored at 4 °C for approximately 16 h. Excess diazomethane evaporated under a gentle stream of nitrogen in a fume hood, followed by adding 0.5 mL of hexane. […]

[3] = MKI, male CYP2A6-humanized mice, single oral PCB 95 1.0 mg/kg, mean ± SD
[4] = MWT, male wildtype mice, single oral PCB 95 1.0 mg/kg, mean ± SD

In the case of `Clc1ccc(Cl)c(-c2c(Cl)ccc(Cl)c2Cl)c1` [PCB 95, 2,2′,3,5′,6-pentachlorobiphenyl], the “Mean PCB 95 blood level” value ([1]; corresponding dams, exposure via diet through gestation and lactation) is given as 16 ng/g, the “PCB 95 levels in the liver” value ([1]; corresponding offspring on postnatal day 21) is given as 150 ng/g wet weight and the “PCB 95 levels in brain” value ([1]; dams euthanized on postnatal day 21) is given as 47 ng/g. The “PCB 95 levels in adipose tissue” value ([1]; dams exposed during gestation and lactation, high dose 6.0 mg/kg bw/d) was 11,600 ng/g, the “PCB 95 levels in adipose tissue” value ([1]; dams exposed during gestation and lactation, low dose 0.1 mg/kg bw/d) was 170 ng/g and the “PCB 95 levels in blood” value ([1]; dams exposed orally during gestation and lactation, high dose 6.0 mg/kg bw/d) was 52 ng/g. The “PCB 95 levels in blood” value ([1]; dams exposed orally during gestation and lactation, low dose 0.1 mg/kg bw/d) was “not detected”, the “PCB 95 levels in the liver” value ([1]; dams exposed throughout gestation and lactation) was 120 ng/g wet weight and the “PCB 95 levels in the liver” value ([1]; dams exposed to racemic PCB 95 during gestation and lactation, high dose 6.0 mg/kg bw/d) was 700 ng/g. For the same compound, the “PCB 95 levels in the liver” value ([1]; dams exposed to racemic PCB 95 during gestation and lactation, low dose 0.1 mg/kg bw/d) was 12 ng/g, the “PCB 95 levels in adipose tissue” value ([1]; female mice, sub-chronic oral exposure, 0.1 mg/kg bw/d) was 1800 ng/g and the “PCB 95 levels in adipose tissue” value ([1]; female mice, sub-chronic oral exposure, 6.0 mg/kg bw/d) was 47,000 ng/g. For the same compound, the “PCB 95 levels in blood” value ([1]; female mice, subchronic oral exposure, 0.1 mg/kg bw/d) was 90 ng/g, the “PCB 95 levels in blood” value ([1]; female mice, subchronic oral exposure, 6.0 mg/kg bw/d) was 1200 ng/g and the “PCB 95 levels in brain” value ([1]; mice exposed orally to different doses throughout pregnancy, below the detection limit) was less than 140 ng/g. The “PCB 95 levels in brain” value ([1]; offspring of pregnant mice exposed developmentally, postnatal day 7) was 50 ng/g, the “PCB 95 levels in brain” value ([1]; offspring of pregnant mice exposed developmentally, postnatal day 21) was 70 ng/g and the “PCB 95 levels in blood” value ([1]; postnatal day 21 pups exposed throughout gestation and lactation via the maternal diet) was 36 ng/g. The Levels in blood ([2]; FKO, female Cyp2abfgs-null mice, single oral PCB 95 1.0 mg/kg, mean ± SD) was 9 ng/g tissue, the Levels in adipose ([2]; FWT, female wildtype mice, single oral PCB 95 1.0 mg/kg, mean ± SD) was 1300 ng/g tissue and the Levels in blood [2, 3] was 16 ng/g tissue. It also gave a Levels in liver [2, 3] of 183 ng/g tissue, a Levels in adipose ([2]; MKO, male Cyp2abfgs-null mice, single oral PCB 95 1.0 mg/kg, mean ± SD) of 690 ng/g tissue and a Levels in adipose [2, 4] of 1300 ng/g tissue. It also gave a Levels in liver [2, 4] of 96 ng/g tissue, a Kp at 24 h ([2]; both sexes, C57BL/6 (wild-type), KO and KI, mouse, adipose / whole blood, all six exposure groups, single oral 1.0 mg/kg, read-out: Mean adipose levels, times higher than the blood levels) of 42 to 68 and a concentration at 24 h ([2]; both sexes, C57BL/6 (wild-type), KO and KI, mouse, brain, range across all three genotypes and both sexes, single oral 1.0 mg/kg, read-out: PCB 95 levels in the whole brain) of 13 to 21 ng/g. For the same compound, the concentration at 24 h ([2]; female, C57BL/6 (wild-type), mouse, adipose, FWT, female wildtype mice, single oral PCB 95 1.0 mg/kg, mean ± SD, read-out: Levels in adipose) was 1310 ± 405 ng/g, the concentration at 24 h ([2]; female, C57BL/6 (wild-type), mouse, brain, FWT, female wildtype mice, single oral PCB 95 1.0 mg/kg, mean ± SD, read-out: Levels in brain) was 19.2 ± 7.3 ng/g and the concentration at 24 h ([2]; female, C57BL/6 (wild-type), mouse, liver, FWT, female wildtype mice, single oral PCB 95 1.0 mg/kg, mean ± SD, read-out: Levels in liver) was 120 ± 42.1 ng/g. For the same compound, the concentration at 24 h ([2]; female, C57BL/6 (wild-type), mouse, whole blood, FWT, female wildtype mice, single oral PCB 95 1.0 mg/kg, mean ± SD, read-out: Levels in blood) was 9.1 ± 2.7 ng/g, the concentration at 24 h ([2]; female, CYP2A6-humanized (KI), mouse, adipose, FKI, female CYP2A6-humanized mice, single oral PCB 95 1.0 mg/kg, mean ± SD, read-out: Levels in adipose) was 824 ± 458 ng/g and the concentration at 24 h ([2]; female, CYP2A6-humanized (KI), mouse, brain, FKI, female CYP2A6-humanized mice, single oral PCB 95 1.0 mg/kg, mean ± SD, read-out: Levels in brain) was 19.7 ± 6.8 ng/g. It also gave a concentration at 24 h ([2]; female, CYP2A6-humanized (KI), mouse, liver, FKI, female CYP2A6-humanized mice, single oral PCB 95 1.0 mg/kg, mean ± SD, read-out: Levels in liver) of 114 ± 44.1 ng/g, a concentration at 24 h ([2]; female, CYP2A6-humanized (KI), mouse, whole blood, FKI, female CYP2A6-humanized mice, single oral PCB 95 1.0 mg/kg, mean ± SD, read-out: Levels in blood) of 12.9 ± 15.4 ng/g and a concentration at 24 h ([2]; female, Cyp2abfgs-null (KO), mouse, adipose, FKO, female Cyp2abfgs-null mice, single oral PCB 95 1.0 mg/kg, mean ± SD, read-out: Levels in adipose) of 859 ± 317 ng/g. It also gave a concentration at 24 h ([2]; female, Cyp2abfgs-null (KO), mouse, brain, FKO, female Cyp2abfgs-null mice, single oral PCB 95 1.0 mg/kg, mean ± SD, read-out: Levels in brain) of 20.6 ± 8.2 ng/g, a concentration at 24 h ([2]; female, Cyp2abfgs-null (KO), mouse, liver, FKO, female Cyp2abfgs-null mice, single oral PCB 95 1.0 mg/kg, mean ± SD, read-out: Levels in liver) of 109 ± 29.7 ng/g and a concentration at 24 h ([2]; female, Cyp2abfgs-null (KO), mouse, whole blood, FKO, female Cyp2abfgs-null mice, single oral PCB 95 1.0 mg/kg, mean ± SD, read-out: Levels in blood) of 8.6 ± 4.2 ng/g. It also gave a concentration at 24 h ([2]; male, C57BL/6 (wild-type), mouse, adipose, MWT, male wildtype mice, single oral PCB 95 1.0 mg/kg, mean ± SD, read-out: Levels in adipose) of 1320 ± 297 ng/g, a concentration at 24 h ([2]; male, C57BL/6 (wild-type), mouse, brain, MWT, male wildtype mice, single oral PCB 95 1.0 mg/kg, mean ± SD, read-out: Levels in brain) of 19.3 ± 4 ng/g and a concentration at 24 h ([2]; male, C57BL/6 (wild-type), mouse, liver, MWT, male wildtype mice, single oral PCB 95 1.0 mg/kg, mean ± SD, read-out: Levels in liver) of 96.3 ± 31.7 ng/g. The concentration at 24 h ([2]; male, C57BL/6 (wild-type), mouse, whole blood, MWT, male wildtype mice, single oral PCB 95 1.0 mg/kg, mean ± SD, read-out: Levels in blood) was 14.1 ± 2 ng/g, the concentration at 24 h ([2]; male, CYP2A6-humanized (KI), mouse, adipose, MKI, male CYP2A6-humanized mice, single oral PCB 95 1.0 mg/kg, mean ± SD, read-out: Levels in adipose) was 734 ± 355 ng/g and the concentration at 24 h ([2]; male, CYP2A6-humanized (KI), mouse, brain, MKI, male CYP2A6-humanized mice, single oral PCB 95 1.0 mg/kg, mean ± SD, read-out: Levels in brain) was 13.3 ± 5.7 ng/g. For the same compound, the concentration at 24 h ([2]; male, CYP2A6-humanized (KI), mouse, liver, MKI, male CYP2A6-humanized mice, single oral PCB 95 1.0 mg/kg, mean ± SD, read-out: Levels in liver) was 183 ± 190 ng/g, the concentration at 24 h ([2]; male, CYP2A6-humanized (KI), mouse, whole blood, MKI, male CYP2A6-humanized mice, single oral PCB 95 1.0 mg/kg, mean ± SD, read-out: Levels in blood) was 15.6 ± 18.3 ng/g and the concentration at 24 h ([2]; male, Cyp2abfgs-null (KO), mouse, adipose, MKO, male Cyp2abfgs-null mice, single oral PCB 95 1.0 mg/kg, mean ± SD, read-out: Levels in adipose) was 692 ± 93 ng/g. The concentration at 24 h ([2]; male, Cyp2abfgs-null (KO), mouse, brain, MKO, male Cyp2abfgs-null mice, single oral PCB 95 1.0 mg/kg, mean ± SD, read-out: Levels in brain) was 13.1 ± 6.1 ng/g, the concentration at 24 h ([2]; male, Cyp2abfgs-null (KO), mouse, liver, MKO, male Cyp2abfgs-null mice, single oral PCB 95 1.0 mg/kg, mean ± SD, read-out: Levels in liver) was 146 ± 42.6 ng/g and the concentration at 24 h ([2]; male, Cyp2abfgs-null (KO), mouse, whole blood, MKO, male Cyp2abfgs-null mice, single oral PCB 95 1.0 mg/kg, mean ± SD, read-out: Levels in blood) was 10.6 ± 7.4 ng/g.
